Test results from patent US20030207812A1, “Cd45 inhibitors” (priority 2002, published 2003).

Legend:
T cells (PBMC) = experiment: cells; type: cell-based, human; conditions: human PBMC, OKT3 30 ng/mL, [3H]thymidine; read-out: T cell prolif. IC50
Procedure: Cell isolation and T cell proliferation assay:
Whole blood was obtained from healthy human blood donors. Peripheral blood mononuclear cells (“PBMC”) were isolated using Lymphoprep density-gradient centrifugation (Nycomed Amersham, Oslo, Norway), washed, counted and resuspended at 2×10^6 cells/mL in RPMI 1640 medium containing glutamine, 0.1 mg/mL gentamycin and 10% heat inactivated human serum. PBMC were transferred to 96-well plates (2×10^5 cells/well) containing compound or vehicle control, with the final concentration of DMSO not to exceed 0.3%, and incubated for 1 hour before addition of the activating anti-CD3 antibody, OKT3 (30ng/mL). After 24 hours in culture, the cells were pulsed with [^3H]thymidine (1 μCi/well) overnight and harvested the next day onto 96-well Packard GF/C filter plates using a Packard Cell Harvester (Packard Instruments, Meriden, Conn.). The filter plate was dried, the bottom of the plate sealed, 25 μL of Microscint 20 scintillation fluid added to each well, the top of the plate sealed with TopSeal-A, and the plate counted on a Packard TopCount. The data from the TopCount is transferred into Excel 5 (Microsoft, Redmond, Wash.) and formatted for EC50 determination using Prism software (GraphPad Software, San Diego, Calif.).

CD45 [1] = biological target: T1, CD45 (Homo sapiens, UniProt P08575); experiment: Phosphatase assay using pNPP as substrate; type: biochemical; conditions: CD45 phosphatase, pNPP substrate, pH 7.0; read-out: pNPP IC50
T1 construct: incubating the cytosolic portion of CD45 with the compounds and p-nitrophenyl phosphate (pNPP); purchased BIOMOL (Plymouth Meeting, Pa.)
T1 sequence (P08575 599-1306 limits assumed): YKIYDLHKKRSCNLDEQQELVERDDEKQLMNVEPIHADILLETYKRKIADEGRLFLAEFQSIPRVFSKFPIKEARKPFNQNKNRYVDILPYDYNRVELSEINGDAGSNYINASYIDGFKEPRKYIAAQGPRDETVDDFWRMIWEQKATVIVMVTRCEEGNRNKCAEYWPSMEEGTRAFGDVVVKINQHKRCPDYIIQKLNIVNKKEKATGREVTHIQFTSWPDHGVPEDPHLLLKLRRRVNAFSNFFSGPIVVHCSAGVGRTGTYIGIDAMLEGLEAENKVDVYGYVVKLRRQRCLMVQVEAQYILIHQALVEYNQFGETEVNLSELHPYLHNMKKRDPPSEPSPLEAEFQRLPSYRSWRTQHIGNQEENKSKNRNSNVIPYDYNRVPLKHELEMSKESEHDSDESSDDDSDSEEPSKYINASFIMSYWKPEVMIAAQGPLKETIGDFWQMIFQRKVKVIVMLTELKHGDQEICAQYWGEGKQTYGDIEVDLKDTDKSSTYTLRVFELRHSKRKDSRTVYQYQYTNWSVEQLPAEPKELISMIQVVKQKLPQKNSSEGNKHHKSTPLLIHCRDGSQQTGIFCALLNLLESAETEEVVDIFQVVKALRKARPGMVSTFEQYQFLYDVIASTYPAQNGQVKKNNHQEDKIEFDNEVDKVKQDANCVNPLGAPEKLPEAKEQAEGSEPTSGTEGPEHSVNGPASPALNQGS
Procedure: Phosphatase assay using pNPP as substrate:
CD45 enzyme was obtained from BIOMOL (Plymouth Meeting, Pa.). Phosphatase activity was assayed in a buffer containing final concentrations of 25 mM imidazole at pH 7.0, 50 mM NaCl, 2.5 mM ethylenediaminetetraacetic acid (“EDTA”), 5 mM dithiothreitol (“DTT”) and 10 μg/mL bovine serum albumin (“BSA”) using pNPP as a substrate.

CD45 [2] = biological target: T1, CD45; experiment: Phosphatase assay using lck 10-mer as substrate; type: biochemical; conditions: CD45 phosphatase, lck carboxy-terminal peptide TEGQpYQPQP substrate, pH 7.2; read-out: Ick IC50
Procedure: Phosphatase assay using lck 10-mer as substrate:
Phosphatase activity was assayed in 96 well plates in a buffer containing final concentrations of 25 mM HEPES at pH 7.2, 5 mM DTT and 10 μg/mL BSA using the lck carboxy-terminal peptide TEGQpYQPQP as the substrate (Cho, H., Krishnaraj, R., Itoh, M., Kitas, E., Bannwarth, W., Saito, H., Walsh, C. T. 1993. Substrate specificities of catalytic fragments of protein tyrosine phosphatases (HPTPb, LAR, and CD45) toward the phosphotyrosylpeptide substrates and thiophosphotyrosylated peptides as inhibitors. Protein Science 2:977-984). Compounds were tested in a range from 30 to 0.01 μM in a final concentration of 5% DMSO. Enzyme was incubated with substrate with or without compound, at room temperature for 1.5 h. At the end of the incubation period, BIOMOL “Green Reagent” (BIOMOL, Plymouth Meeting, Pa.) was added to each well, the plates incubated at room temperature for 30 min and absorbance read at 620 nm.

[3] = Cytotoxicity assay (Calcein-AM uptake); conditions: human, PHA-expanded T-cell lymphoblasts from PBMC

SMILES	IC50 (CD45 [1])	IC50 (CD45 [2])	IC50 (T cells (PBMC))	CC50 [3]
CC(C)(C)C(=O)Nc1ccc2c(c1)-c1ccccc1C(=O)C2=O [Example 10, N-(9,10-Dioxo-9,10-dihydro-phenenathren-3-yl)-2,2-dimethyl-propionamide]	1.2 µM	4.9 µM	0.7 µM	10 µM
O=C(Nc1ccc2c(c1)-c1ccccc1C(=O)C2=O)c1ccccc1F [Example 12, N-(9,10-Dioxo-9,10-dihydro-phenanthren-3-yl)-2-fluoro-benzamide]	1.3 µM	6 µM	3 µM	15 µM
Cc1ccc(S(=O)(=O)Nc2ccc3c(c2)C(=O)C(=O)c2ccccc2-3)cc1 [Example 15, N-(9,10-Dioxo-9,10-dihydro-phenanthren-2-yl)-4-methyl-benzenesulfonamide]	1 µM	15 µM	6.4 µM	> 30 µM
O=C1C(=O)c2cc(-c3ccc4c(c3)OCO4)ccc2-c2ccccc21 [Example 21, 2-Benzo[1,3]dioxol-5-yl-phenanthrene-9,10-dione]	0.99 µM	> 30 µM	1.8 µM	4.9 µM
CCOc1ccccc1-c1ccc2c(c1)C(=O)C(=O)c1ccccc1-2 [Example 22, 2-(2-Ethoxy-phenyl)-phenanthrene-9,10-dione]	3.6 µM	9.7 µM	0.7 µM	> 30 µM
CC(C)CNC(=O)[C@H](CCC(N)=O)NC(=O)CNC(=O)c1ccc2c(c1)-c1ccccc1C(=O)C2=O [Example 23]	1.1 µM	3 µM	20 µM	> 30 µM
COC(=O)CCCCCCC(=O)Nc1ccc2c(c1)C(=O)C(=O)c1cccc([N+](=O)[O-])c1-2 [Example 64, 7-(5-Nitro-9,10-dioxo-9,10-dihydro-phenanthren-2-ylcarbamoyl)-heptanoic Acid Methyl Ester]	1.1 µM	> 30 µM	4 µM	14 µM
COC(=O)CCCC(=O)Nc1ccc2c(c1)C(=O)C(=O)c1cccc([N+](=O)[O-])c1-2 [Example 65, 4-(5-Nitro-9,10-dioxo-9,10-dihydro-phenanthren-2-ylcarbamoyl)-butyric Acid Methyl Ester]	1.1 µM	3.1 µM	0.6 µM	15 µM
COC(=O)CCC(=O)Nc1ccc2c(c1)C(=O)C(=O)c1cccc([N+](=O)[O-])c1-2 [Example 66, N-(5-Nitro-9,10-dioxo-9,10-dihydro-phenanthren-2-yl)-succinamic Acid Methyl Ester]	0.9 µM	1.8 µM	3.5 µM	13 µM
COC(=O)CCCC(=O)Nc1cccc2c1-c1ccccc1C(=O)C2=O [Example 67, 4-(9,10-Dioxo-9,10-dihydro-phenanthren-4-ylcarbamoyl)-butyric Acid Methyl Ester]	1 µM	2.2 µM	0.8 µM	4 µM
COC(=O)CCCCCCC(=O)Nc1cccc2c1-c1ccccc1C(=O)C2=O [Example 68, 7-(9,10-Dioxo-9,10-dihydro-phenanthren-4-ylcarbamoyl)-heptanoic Acid Methyl Ester]	1 µM	3.2 µM	1.8 µM	7.5 µM
COC(=O)CCCCCCC(=O)Nc1ccc2c(c1)C(=O)C(=O)c1cccc(NC(=O)CCCCCCC(=O)OC)c1-2 [Example 75, 7-[5-(7-Methoxycarbonyl-heptanoylamino)-9,10-dioxo-9,10-dihydro-phenanthren-2-ylcarbamoyl]-heptanoic Acid Methyl Ester]	0.8 µM	10 µM	2.6 µM	13 µM
COC(=O)CCCCCCCCC(=O)Nc1ccc2c(c1)C(=O)C(=O)c1cccc(NC(=O)CCCCCCCCC(=O)OC)c1-2 [Example 76, 9-[5-(9-Methoxycarbonyl-nonanoylamino)-9,10-dioxo-9,10-dihydro-phenanthren-2-ylcarbamoyl]-nonanoic Acid Methyl Ester]	9.3 µM	> 30 µM	7 µM	> 30 µM

Further molecules by falling IC50 (CD45 [1]), results first:

IC50 (CD45 [1])	IC50 (CD45 [2])	SMILES	IC50 (T cells (PBMC))	CC50 [3]
0.8 µM	> 30 µM	O=C1C(=O)c2cc(-c3ccsc3)ccc2-c2ccccc21 [Example 17, 2-Thiophen-3-yl-phenanthrene-9,10-dione]	1.8 µM	7.3 µM
0.8 µM	3.3 µM	COC(=O)CCCC(=O)Nc1ccc2c(c1)C(=O)C(=O)c1cccc(NC(=O)CCCC(=O)OC)c1-2 [Example 74, 4-[5-(4-Methoxycarbonyl-butyrylamino)-9,10-dioxo-9,10-dihydro-phenanthren-2-ylcarbamoyl]-butyric Acid Methyl Ester]	2.6 µM	19 µM
0.7 µM	2.6 µM	COC(=O)CCC(=O)Nc1cccc2c1-c1ccccc1C(=O)C2=O [Example 63, N-(9,10-Dioxo-9,10-dihydro-phenanthren-4-yl)-succinamic Acid Methyl Ester]	1.2 µM	8 µM
0.6 µM	4.8 µM	COC(=O)CCCCCCCCC(=O)Nc1cccc2c1-c1ccccc1C(=O)C2=O [Example 69, 9-(9,10-Dioxo-9,10-dihydro-phenanthren-4-ylcarbamoyl)-nonanoic Acid Methyl Ester]	4.6 µM	14 µM
0.5 µM	16 µM	O=C1C(=O)c2cc(NC(=O)c3c(Cl)cc(Cl)cc3Cl)ccc2-c2ccccc21 [Example 6, 2,4,6-Trichloro-N-(9,10-dioxo-9,10-dihydro-phenanthren-2-yl)-benzamide]	1.5 µM	12 µM
0.5 µM	13 µM	O=C1C(=O)c2cc(NC(=O)C(Cl)(Cl)Cl)ccc2-c2ccccc21 [Example 7, 2,2,2-Trichloro-N-(9,10-dioxo-9,10-dihydro-phenanthren-2-yl)-acetamide]	0.5 µM	9 µM
0.5 µM	3 µM	COC(=O)CCC(=O)Nc1ccc2c(c1)C(=O)C(=O)c1cccc(NC(=O)CCC(=O)OC)c1-2 [Example 73, N-[5-(3-Methoxycarbonyl-propionylamino)-9,10-dioxo-9,10-dihydro-phenanthren-2-yl]-succinamic Acid Methyl Ester]	5 µM	11 µM
0.4 µM	15 µM	O=C1C(=O)c2cc(NC(=O)c3ccccc3C(F)(F)F)ccc2-c2ccccc21 [Example 8, N-(9,10-Dioxo-9,10-dihydro-phenanthren-2-yl)-2-trifluoromethyl-benzamide]	1.4 µM	12 µM
0.4 µM	4.7 µM	COC(=O)CCCC(=O)Nc1ccc2c(c1)C(=O)C(=O)c1ccccc1-2 [Example 70, 4-(9,10-Dioxo-9,10-dihydro-phenanthren-2-ylcarbamoyl)-butyric Acid Methyl Ester]	0.5 µM	3 µM
